Experimental data as given in article PMC12298876, “Angiotensin-Converting Enzyme Inhibitory Activity of Selected Phenolic Acids, Flavonoids, Their O-Glucosides, and Low-Molecular-Weight Phenolic Metabolites in Relation to Their Oxidation Potentials” (Metabolites, 2025).
Read-outs that look alike come from different tables or passages of the source. Marks after values point to notes of the source that are not given here.

Assays:
[1] = First anodic oxidation potential by differential pulse voltammetry (DPV); assay type: physicochemical; settings: for Anodic Peak Potential Epa: DPV, first anodic peak, 0.25 mM standard in 0.1 M Britton-Robinson buffer pH 6.0 in 80% methanol, glassy carbon vs Ag/AgCl, 100 mV/s; for antioxidant power class based on the first oxidation potential: classes according to Blasco et al. [47]
Procedure: A potentiostat/galvanostat G 750 (Gamry Instruments, Warminster, USA) was used for voltametric experiments. A conventional three-electrode system: a 3 mm diameter glassy carbon working electrode (BAS MF-2012), an Ag/AgCl electrode as a reference electrode, and a platinum as counter electrode, was used in the study. Differential pulse voltametric experiments were performed with phenolic acids and flavonoids prepared in a 1:1 (v/v) mixture of 500 µM standard solution and […] Britton-Robinson (B-R) buffer (pH 6.0 in 80% methanol), which also served as a supporting electrolyte. The voltametric experiments were performed at room temperature using an electrochemical cell (volume 200 µL), to which the analyzed standard solution, mixed previously with the buffer solution, was introduced. The differential pulse voltammograms were acquired in the range of −100 to 1300 mV at a scanning rate of 100 mV/s. Before use, the surface of the glassy carbon electrode was carefully polished with 0.05 µm alumina paste, ultrasonically rinsed in deionized water, and then washed with methanol. This procedure was repeated after each cycle. For test purposes, the first anodic oxidation potential was recorded (mV).

[2] = target: T1, Angiotensin-converting enzymes (ACE) from porcine kidneys (EC 3.4.15.1) (Sus scrofa, UniProt F1RRW5); experiment: biochemical; settings: for lower IC50 in relation to the respective aglycone / higher value of IC50 as compared to the IC50 of the respective aglycon: ACE inhibition; for lower IC50 in relation to the respective aglycone: glycoside vs aglycon; for higher value of IC50 as compared to the IC50 of the respective aglycon: glucoside vs aglycon; for ACE inhibitory activity lower than that of reduced glutathione (GSH): ratio to the IC50 of GSH
T1 construct: Angiotensin-converting enzymes (ACE) from porcine kidneys (EC 3.4.15.1) were purchased from Sigma-Aldrich; purchased Sigma-Aldrich (St. Louis, MO, USA); host or cells: porcine kidneys (tissue-derived enzyme)
T1 sequence (F1RRW5 34-1309): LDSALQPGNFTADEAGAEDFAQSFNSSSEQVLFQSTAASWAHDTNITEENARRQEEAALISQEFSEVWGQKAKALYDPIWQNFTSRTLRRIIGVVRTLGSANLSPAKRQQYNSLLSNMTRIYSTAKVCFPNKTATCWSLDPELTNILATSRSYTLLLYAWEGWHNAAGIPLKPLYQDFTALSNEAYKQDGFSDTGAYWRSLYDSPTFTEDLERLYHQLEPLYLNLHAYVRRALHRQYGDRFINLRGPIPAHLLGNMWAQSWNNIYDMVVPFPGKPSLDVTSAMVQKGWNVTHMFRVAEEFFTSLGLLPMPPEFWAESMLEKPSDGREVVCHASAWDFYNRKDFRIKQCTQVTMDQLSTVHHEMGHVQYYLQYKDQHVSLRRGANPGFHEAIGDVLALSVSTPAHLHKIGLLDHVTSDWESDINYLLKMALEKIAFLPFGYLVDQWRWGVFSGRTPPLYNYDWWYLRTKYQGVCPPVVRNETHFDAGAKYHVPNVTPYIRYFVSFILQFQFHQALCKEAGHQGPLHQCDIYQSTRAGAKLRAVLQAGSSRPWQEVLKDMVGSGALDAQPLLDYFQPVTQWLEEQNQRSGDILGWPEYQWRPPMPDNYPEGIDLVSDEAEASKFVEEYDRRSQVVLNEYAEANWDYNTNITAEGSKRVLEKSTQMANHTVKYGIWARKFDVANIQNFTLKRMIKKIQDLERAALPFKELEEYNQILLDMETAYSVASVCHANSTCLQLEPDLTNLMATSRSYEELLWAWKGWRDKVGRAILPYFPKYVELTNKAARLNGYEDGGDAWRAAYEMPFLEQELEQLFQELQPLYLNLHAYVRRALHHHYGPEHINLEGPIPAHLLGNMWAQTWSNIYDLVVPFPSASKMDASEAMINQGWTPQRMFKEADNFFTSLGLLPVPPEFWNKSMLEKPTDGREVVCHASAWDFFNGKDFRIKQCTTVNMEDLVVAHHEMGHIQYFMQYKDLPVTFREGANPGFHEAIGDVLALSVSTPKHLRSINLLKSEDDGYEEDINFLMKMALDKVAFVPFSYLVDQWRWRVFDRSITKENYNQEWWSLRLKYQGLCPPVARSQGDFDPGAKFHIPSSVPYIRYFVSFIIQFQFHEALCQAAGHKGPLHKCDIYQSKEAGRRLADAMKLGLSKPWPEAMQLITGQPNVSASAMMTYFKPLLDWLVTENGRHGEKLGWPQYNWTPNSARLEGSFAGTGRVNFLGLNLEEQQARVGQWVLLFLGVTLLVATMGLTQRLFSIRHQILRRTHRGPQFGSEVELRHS
Procedure: Angiotensin-converting enzymes (ACE) from porcine kidneys (EC 3.4.15.1) were purchased from Sigma-Aldrich (St. Louis, MO, USA). A three-tris-base buffer was as follows: buffer A: 300 mM Tris-base buffer (pH 8.3) with 2 mM ZnCl2; buffer B: 150 mM Tris-base buffer (pH 8,3); and buffer C: 150 mM Tris-base buffer (pH 8.3) with […] NaCl. The substrate o-aminobenzoylglycyl-p-nitorphenylalanylproline (Abz-Gly-Phe(NO2)-Pro) was obtained from BACHEM (Bubendorf, Switzerland). Standards of phenolic acids, flavonoids, glucosides, and low-molecular-weight phenolic metabolites were obtained from Sigma-Aldrich (St. Louis, MO, USA) and Extrasynthese (Genay, France). Water was purified using the Mili-Q system (Milipore, Bedford, MA, USA).
Stock solutions at 1 mM of selected phenolic acids, flavonoids, their O-glucosides, and low-molecular-weight phenolic metabolites were prepared in 80% methanol. The concentration was confirmed by a UV measurement according to Franke et al.. A wide range of concentrations of each compound was prepared by serial dilutions in deionized water to determine the IC50 value. […] The ACE inhibitory activity was obtained from three repetitions (n = 3) for each concentration.
Angiotensin-converting enzyme (ACE) activity inhibitory assay was performed according to the method of Sentandreu and Toldra. The procedure was based on the hydrolysis of the internally quenched substrate o-aminobenzoylglycyl-p-nitorphenylalanylproline (Abz-Gly-Phe(NO2)-Pro) by the reaction of ACE. The fluorescence generated by the liberation of the product (the o-aminobenzoylglycine group) was read in a microplate multiscan fluorometer. The production of fluorescence was inhibited by the presence of functional compounds with an ACE inhibitory effect. The fluorescence was measured immediately after mixing (0 min) and then after 30 min of reaction at an excitation of 365 nm and an emission of 405 nm. To calculate the % of inhibition of ACE, the following equation was used:Relative ACE activity% = 100 − (ΔRFUsample × 100/ΔRFUnegative control), where ΔRFU = RFU at time 30 – RFU at time 0.

[3] = IC50 Value (ACE inhibitory activity), porcine kidney ACE, substrate Abz-Gly-Phe(NO2)-Pro, fluorescence after 30 min, mean ± SD
[4] = porcine kidney ACE, substrate Abz-Gly-Phe(NO2)-Pro, fluorescence after 30 min, mean ± SD, read-out: IC50 Value (ACE inhibitory activity)
[5] = low-molecular-weight phenolic metabolites

Row | SMILES | Anodic Peak Potential Epa [1] | IC50 [2, 4] [mM] | further results
1 | O=C(O)c1cc(O)ccc1O [Gentisic acid] | 622 ± 8 ^c mV | – | IC50 ([2]; IC50 (ACE inhibition), values of this study restated in mM in the discussion): 0.834 mM; IC50 [2, 3]: 0.834 ± 0.00926 mM
2 | O=C(O)c1ccc(O)cc1 [4-HBA, 4-hydroxybenzoic acid] | 961 ± 11 ^a mV | 0.788 ± 0.0111 | –
3 | COc1cc(C(=O)O)cc(OC)c1O [Syringic acid] | 731 ± 9 ^a mV | 2.76 ± 0.0363 | –
4 | Oc1cc(O)c2cc(O)c(-c3cc(O)c(O)c(O)c3)[o+]c2c1 [Delphinidin] | 259 ± 3 ^i mV | – | IC50 [2, 3]: 0.2477 ± 0.00185 mM
5 | O=c1c(OC2OC(CO)C(O)C(O)C2O)c(-c2ccc(O)cc2)oc2cc(O)cc(O)c12 (stereo not shown) [Kaempferol-3-O-glucoside] | 359 ± 3 ^fg mV | – | lower IC50 in relation to the respective aglycone [2]: 16%; IC50 [2, 3]: 0.11 ± 0.00356 mM
6 | N[C@@H](CCC(=O)N[C@@H](CS)C(=O)NCC(=O)O)C(=O)O [GSH, reduced glutathione, reference compound] | – | 0.0417 | –
7 | O=C(O)C=Cc1ccc(O)cc1 [p-Coumaric acid] | 672 ± 10 ^b mV | 0.315 ± 0.0098 | Anodic Peak Potential Epa ([1]; listed as p-coumaric acid): 672 mV
8 | O=C(O)c1ccc(O)c(O)c1 [Protocatechuic acid] | 417 ± 12 ^e mV | 6.235 ± 0.042 | Anodic Peak Potential Epa ([1]; listed as protocatechuic acid): 417 mV; IC50 ([2]; values of this study restated in mM in the discussion, read-out: IC50 (ACE inhibition)): 6.24 mM
9 | OCC1OC(Oc2cc3c(O)cc(O)cc3[o+]c2-c2cc(O)c(O)c(O)c2)C(O)C(O)C1O (stereo not shown) [Delphinidin-3-O-glucoside] | 453 ± 4 ^e mV | 0.2088 ± 0.00133 | lower IC50 in relation to the respective aglycone [2]: 16%
10 | OCC1OC(Oc2cc3c(O)cc(O)cc3[o+]c2-c2ccc(O)cc2)C(O)C(O)C1O (stereo not shown) [Pelargonidin-3-O-glucoside] | 473 ± 5 ^d mV | 0.3769 ± 0.00261 | higher value of IC50 as compared to the IC50 of the respective aglycon [2]: 29%
11 | COc1cc(/C=C/C(=O)O)cc(OC)c1O [Sinapic acid] | 618 ± 7 ^c mV | – | IC50 [2, 3]: 0.493 ± 0.00614 mM
12 | O=C(/C=C/c1ccc(O)c(O)c1)O[C@@H]1C[C@](O)(C(=O)O)C[C@@H](O)[C@H]1O [Chlorogenic acid] | 443 ± 9 ^d mV | 0.134 | ACE inhibitory activity lower than that of reduced glutathione (GSH) [2]: threefold
13 | O=c1cc(-c2ccc(O)c(O)c2)oc2cc(OC3OC(CO)C(O)C(O)C3O)cc(O)c12 (stereo not shown) [Luteolin-7-O-glucoside] | 445 ± 3 ^e mV | – | lower IC50 in relation to the respective aglycone [2]: 20%; IC50 [2, 3]: 0.0615 ± 0.00162 mM
14 | COC(=O)CCc1ccc(O)cc1 [MET, 3-(4-hydroxyphenyl)propionic methyl ester] | 574 ± 5 ^f mV | 0.726 ± 0.00571 | antioxidant power class based on the first oxidation potential [1, 5]: moderate antioxidant power (moderate antioxidant power (0.3 V < Epa < 0.8 V))
15 | Oc1cc(O)c2cc(O)c(-c3ccc(O)c(O)c3)[o+]c2c1 [Cyanidin] | 295 ± 3 ^h mV | 0.176 ± 0.00238 | antioxidant power class based on the first oxidation potential ([1]; flavonoids and glucosides): high antioxidant power (high antioxidant power (Ep < 0.3 V))
16 | O=C1C[C@@H](c2ccc(O)cc2)Oc2cc(O)cc(O)c21 [Naringenin] | 819 ± 7 ^bc mV | 0.391 | –
17 | O=c1cc(-c2ccc(O)cc2)oc2cc(OC3O[C@H](CO)[C@@H](O)[C@H](O)[C@H]3O)cc(O)c12 (stereo partly shown) [Apigenin-7-O-glucoside] | 841 ± 6 ^ab mV | 0.218 ± 0.00253 | lower IC50 in relation to the respective aglycone [2]: 35%
18 | O=C(O)CCc1ccc(O)c(O)c1 [3,4-DHPPA, 3-(3,4-dihydroxyphenyl)propionic acid] | 218 ± 3 ^h mV | 0.612 ± 0.00651 | –
19 | Oc1ccc(-c2[o+]c3cc(O)cc(O)c3cc2O)cc1 [Pelargonidin] | 228 ± 5 ^j mV | 0.293 ± 0.0034 | –
20 | O=C(O)CCc1ccc(O)cc1O [3-2,4-DHPPA, 3-(2,4-dihydroxyphenyl)propionic acid] | 659 ± 8 ^e mV | 0.745 ± 0.00833 | antioxidant power class based on the first oxidation potential [1, 5]: moderate antioxidant power (moderate antioxidant power (0.3 V < Epa < 0.8 V))
21 | COc1cc(CC(=O)O)ccc1O [HVA, 2-(3-methoxy-4-hydroxyphenyl)acetic acid] | 643 ± 5 ^e mV | – | antioxidant power class based on the first oxidation potential [1, 5]: moderate antioxidant power (moderate antioxidant power (0.3 V < Epa < 0.8 V)); IC50 [2, 3]: 1.46 mM; ACE inhibitory activity lower than that of reduced glutathione (GSH) [2]: about 35 fold
22 | O=c1c(O)c(-c2ccc(O)c(O)c2)oc2cc(O)cc(O)c12 [Quercetin] | 330 ± 4 ^g mV | 0.121 ± 0.00156 | –
23 | O=c1cc(-c2ccc(OC3OC(CO)C(O)C(O)C3O)c(O)c2)oc2cc(O)cc(O)c12 (stereo not shown) [Luteolin-4′-O-glucoside] | 828 ± 5 ^b mV | 0.0889 ± 0.00168 | higher value of IC50 as compared to the IC50 of the respective aglycon [2]: 15%
24 | O=c1c(O)c(-c2ccc(O)cc2)oc2cc(OC3OC(CO)C(O)C(O)C3O)cc(O)c12 (stereo not shown) [Kaempferol-7-O-glucoside] | 419 ± 6 ^f mV | 0.0977 ± 0.00208 | lower IC50 in relation to the respective aglycone [2]: 26%
